# Measured values taken from paper PMC3877894, “Cytotoxic, Cytostatic and HIV-1 PR Inhibitory Activities of the Soft Coral Litophyton arboreum” (Marine Drugs, 2013).
# Several values for one entry are separate records, joined by “and”; a condition that tells them apart may be missing. Equal entries are not always repeated. Entries after “also recorded” stand apart in the source; their conditions may differ. Where two headings read alike, the source gives them in different places. Starred links: 1 amine or outer side, 2 acyl side, 3 side chain; linkers in the order of their positions; H or OH if unused. Positions of bridges follow the written chain, without caps; N, C: chain ends. Non-standard residues stand in square brackets, D forms with d. Residues, ends and D or L forms follow the SMILES beside them. Chains are numbered I, II in the order given. Actinocin(9to1) = Cc1c2oc3c(C)ccc(C(=O)[*:1])c3nc-2c(C(=O)[*:2])c(N)c1=O; NMeV = CN[C@H](C(=O)O)C(C)C; Sar = CNCC(=O)O
# Experiments:
# [1] = XTT cytotoxicity assay in HeLa cells; settings: human
# Description: (§1) HeLa, U937, and Vero cell lines were maintained in culture flasks containing Eagle’s Minimum Essential Medium supplemented with 10% heat-inactivated FBS and 1% antibiotics (100 U/mL penicillin, 100 μg/mL streptomycin, and 250 μg/mL fungizone). The cells were grown at 37 °C in a humidified incubator set at 5% CO2. Cells were subcultured after they formed a monolayer on the flask. The cells were detached by treating them with trypsin-EDTA (0.25% trypsin containing 0.01% EDTA) for 10 minutes and then by adding complete medium to inhibit the reaction. Cytotoxicity was measured by the XTT method using the Cell Proliferation Kit II. The method described by Zheng et al. was used to perform the assay. Cells were seeded (100 μL) in a 96-well microtiter plate (concentration 1 × 10^5 cells/mL). The plate was then incubated for 24 h at 37 °C and 5% CO2 to allow the cells to attach to the bottom of the wells. The compounds were each prepared to a stock solution of 20 mg/mL and added to the microtiter plate. Serial dilutions were made to range from a concentration of 100 μg/mL–0.7 μg/mL for each compound. The microtiter plate was incubated for a further 72 h. The control wells included vehicle-treated cells exposed to 2% DMSO and the positive control Actinomycin D, with concentrations ranging between 0.5 μg/mL and 0.002 μg/mL. After the 72 h incubation period, the XTT reagent (50 μL) was added to a final concentration of 0.3 mg/mL and the plate was then further incubated for another 2 h. After the incubation the absorbance of the color complex was read at 490 nm with a reference wavelength set at 690 nm. […] The IC50 values were reported at ±95% confidence intervals (±95% CI). The results were analyzed using the GraphPad Prism 4 program.
# [2] = XTT cytotoxicity assay in Vero cells; settings: African green monkey
# Description: as §1
# [3] = XTT cytotoxicity assay in U937 cells; settings: human
# Description: as §1
# [4] = biological target: T1, HIV-1 PR (Human immunodeficiency virus type 1 group M subtype B, UniProt P04585); assay: HIV-1 protease direct enzyme assay (fluorogenic peptide substrate); type: biochemical; settings: for inhibition at 100 µg/mL: screened at 100 µg/mL
# T1 construct: HIV-1 protease enzyme was purchased from Bachem Bioscience Inc; purchased Bachem Bioscience Inc
# Description: HIV-1 protease enzyme was purchased from Bachem Bioscience Inc. King of Prussia, PA, […] and the substrate (a synthetic peptide that contains a cleavage site Tyr-Pro for HIV protease as well as two covalently modiﬁed amino acids for the detection of cleavage). The assay was performed according to procedures by Lam et al., 2000 [39], in black 96 well assay plates obtained from Corning Incorporated, (Corning, New York, NY, USA). The fluorescence intensity was measured at an excitation wavelength of 355 nm and an emission wavelength of 460 nm using a synergy microplate spectrofluorometer (BioTek, Analytical & Diagnostic products, South Africa). […] DMSO was included in the enzyme control (1% DMSO). […] The percentage inhibition was calculated based on the formula: 100 − [(Test reagent RFU − background RFU)/(untreated control RFU − blank) × 100] where RFU = relative fluorescence units.
# All the experiments were repeated three times in order to ensure the precision and accuracy of the data.
# [5] = system: HeLa cells; assay: Real-time cell electronic sensing (RT-CES, xCELLigence) in HeLa cells; type: cell-based; settings: for inhibition of cell proliferation compared to untreated cells (RT-CES): HeLa, Figure 5
# Description: The xCELLigence system was used according to the instructions of the supplier (Roche Diagnostics, Mannheim, Germany and ACEA Biosciences, San Diego, CA, USA). HeLa cell line, media, trypsin-EDTA, fetal bovine serum (FBS), phosphate buffer saline (PBS), and antibiotics were supplied by […] Biological (Pty) Ltd. (Modderfontein, Johannesburg, South Africa). The electronic impedance of sensor electrodes that connect the E plate to the instrument is measured to allow monitoring and detection of physiological changes of the cells on the electrodes. The impedance measured between electrodes in an individual well depends on electrode geometry, ion concentration in the well and whether or not cells are attached to the electrodes. In the absence of cells, electrode impedance is mainly determined by the ion environment, both at the electrode/solution interface, and in the bulk solution. In the presence of cells, cells attached to the electrode sensor surfaces will act as insulators and thereby alter the local ion environment at the electrode/solution interface, leading to an increase in impedance. Thus, the more cells that are growing on the electrodes, the larger the value of electrode impedance. This assay has been described for the measurement of cytotoxicity and can be used to determine other cellular parameters such as cell proliferation, cytotoxicity start time, cell recovery, and cell response patterns in real time. HeLa cells were grown and expanded in tissue-culture flasks. After reaching ~75% confluence, the HeLa were washed with PBS, and afterwards detached from the flasks by a brief treatment with trypsin. Subsequently, 50 μL of cell culture media at room temperature was added into each well of E-plate. After this the plate was connected to the system and checked in the cell culture incubator for proper electrical-contacts and the background impedance was measured over 24 h. […] One-hundred microliters of each cell suspension was added to the 50 μL medium containing wells on the E-plate, in order to determine the optimum cell concentration. After 30 min incubation at room temperature, E-plates were placed into the cell culture incubator. Finally, adhesion, growth, and proliferation of the cells was monitored every 30 min for a period of up to 18 h via the incorporated sensor electrode arrays of the E-Plate. The electrical impedance was measured by the RTCA-integrated software of the xCELLigence system as a dimensionless parameter termed Cell index (CI). […] All experiments were run for 72 h after adding the compounds. All calculations were obtained using the RTCA-integrated software of the xCELLigence system.
# [6] = system: HeLa cells; assay: XTT cytotoxicity assay in HeLa cells; settings: for IC50: read-out: Cytotoxicity IC50 HeLa, XTT, 72 h incubation
# Description: as §1
# [7] = system: Vero cell line; assay: XTT cytotoxicity assay in Vero cells; settings: at 4.85 µM (HIV-1 PR IC50 concentration)
# Description: as §1
# [8] = system: U937 cells; assay: XTT cytotoxicity assay in U937 cells; settings: at 4.85 µM (HIV-1 PR IC50 concentration)
# Description: as §1
# [9] = system: KB; set-up: method as in PMID 9722490; settings: cited from earlier work
# [10] = system: human prostate cancer cell line LNCaP; settings: cited from earlier work
# [11] = system: A549 cancer cell lines; settings: cited from earlier work
# [12] = system: HT-29; settings: cited from earlier work
# [13] = system: P-388; settings: cited from earlier work
# [14] = HeLa cells, Cytotoxicity IC50 HeLa, XTT, 72 h incubation
# [15] = HeLa cells, Cytotoxicity IC50 HeLa, XTT
smiles,measurement,setting,value
"CO[C@]1(C)CCC(C(C)C)=C[C@H]2[C@H]1CC[C@]2(C)O [Compound 4, 10-O-methyl alismoxide]",IC50 at 72 h,[1]; [14],38 ± 0.7 µM
same,IC50 at 72 h,[2]; Vero cells,49.8 ± 0.5 µM
same,IC50 at 72 h,[3]; U937 cells,50 ± 0.23 µM
"C=C1CCC(C(C)C)=CC2C1CCC2(C)O (centres unmarked) [Compound 2, alismol]",IC50 at 72 h,[1]; [14],30 ± 17.2 µM
same,IC50 at 72 h,[2]; Vero cells,49 µM
same,IC50,[4]; read-out: IC50 HIV-1 PR,7.2 ± 0.7 µM
same,inhibition at 100 µg/mL,[4],96.2%
same,RT-CES effect in HeLa,[5]; 16 μg/mL (Figure 5),cytostatic behavior
same,RT-CES (xCELLigence) effect in HeLa,[5]; 30 µg/mL,cytostatic effect
same,inhibition of cell proliferation compared to untreated cells (RT-CES),[5],50%
"C=C(CCC(C)C1CCC2C3C(OC(C)=O)C=C4CC(O)CCC4(CO)C3CCC12C)C(C)C (stereo not drawn) [Compound 7, 7β-acetoxy-24-methylcholesta-5-24(28)-diene-3,19-diol]",CC50 at 72 h,[1]; HeLa cells,4.3 ± 0.75 µM
same,IC50 at 72 h,[1]; [15],4.3 µg/mL
same,IC50 at 72 h,[1]; [14],4.3 µM
same,cell death in HeLa,[6]; at 4.85 µM (HIV-1 PR IC50 concentration),50%
same,IC50,[6],5.3 ± 0.6 µM
same,IC50 at 72 h,[2]; Vero cells,31.3 ± 14 µM
same,effect in Vero (normal cells),[7],no effect
same,IC50 at 72 h,[3],7.8 µg/mL and 10.6 µM
same,cell death in U937,[8],20%
same,IC50,[4],4.85 ± 0.18 µM
same,inhibition at 100 µg/mL,[4],71.5%
same,RT-CES response in HeLa,[5]; 2.5 µg/mL,dose dependent cytostatic response; also recorded: cytostatic effects
same,RT-CES response in HeLa,[5]; 10 and 5 µg/mL,dose dependent cytotoxic response; also recorded: dose dependent cytotoxic tendency
same,RT-CES cytotoxicity profile in HeLa,[5]; tested at IC50s obtained by XTT,confirmed their cytotoxic effects; also recorded: more toxic than the positive control
same,Cytotoxicity KB,[9],0.38 µg/mL
same,Cytotoxicity IC50 LNCaP,[10],15.5 µg/mL
same,Cytotoxicity A549,[11],0.81 µg/mL
same,Cytotoxicity HT-29,[12],0.87 µg/mL
same,Cytotoxicity P-388,[13],0.42 µg/mL
"CCCCCCCCCCCCCC=CCCC=CC(O)C(CO)NC(=O)CCCCCCCCCCC (stereo not drawn) [Compound 8, erythro-N-dodecanoyl-docosasphinga-(4E,8E)-dienine]",IC50 at 72 h,[1]; [14],71 µM
same,IC50,[6],38.2 ± 0.7 µM
same,IC50 at 72 h,[2]; Vero cells,> 100 µM
same,IC50 at 72 h,[3]; U937 cells,> 100 µM
same,IC50,[4]; read-out: IC50 HIV-1 PR,4.8 ± 0.92 µM
same,inhibition at 100 µg/mL,[4],100%
same,RT-CES (xCELLigence) effect in HeLa,[5]; 100 µg/mL,only affected at long incubation times; also recorded: low level cytotoxicity
"C=C(CC[C@@H](C)[C@H]1CCC2C3CC=C4C[C@@H](O)CC[C@]4(C)C3CC[C@@]21C)C(C)C (stereo partly drawn) [Compound 3, 24-methylcholesta-5,24(28)-diene-3β-ol]",IC50 at 72 h,[1]; [14],48 ± 8.7 µM
same,IC50 at 72 h,[2]; Vero cells,100 ± 1.2 µM
"CC(C)C1=C[C@H]2[C@@H](CC[C@]2(C)O)[C@](C)(O)CC1 [Compound 5, alismoxide]",IC50 at 72 h,[1]; [14],> 100 µM
same,IC50 at 72 h,[2]; Vero cells,> 100 µM
same,IC50 at 72 h,[3]; U937 cells,> 100 µM
same,RT-CES effect in HeLa,[5]; 60 μg/mL (Figure 5),cytostatic behavior
same,RT-CES (xCELLigence) effect in HeLa,[5]; 100 µg/mL,cytostatic effect
same,inhibition of cell proliferation compared to untreated cells (RT-CES),[5],50%
"C=C(CC[C@@H](C)[C@H]1CCC2C3C(CC[C@@]21C)[C@@]1(CO)CC[C@H](O)CC1=C[C@@H]3O)C(C)C (stereo partly drawn) [Compound 9, 24-methylcholesta-5,24(28)-diene-3β,7β,19-triol]",IC50 at 72 h,[1]; Cytotoxicity IC50 HeLa,3.4 µg/mL and 8 µM
same,IC50 at 72 h,[2],11.4 ± 0.04 µM
same,IC50 at 72 h,[3],16.4 ± 1.25 µM
same,Cytotoxicity KB,[9],0.58 µg/mL
same,Cytotoxicity IC50 LNCaP,[10],4.9 µg/mL
same,Cytotoxicity A549,[11],0.69 µg/mL
same,Cytotoxicity HT-29,[12],0.72 µg/mL
same,Cytotoxicity P-388,[13],0.24 µg/mL
"Cc1c2oc3c(C)ccc(C(=O)N[C@@H]4C(=O)N[C@H](C(C)C)C(=O)N5CCC[C@H]5C(=O)N(C)CC(=O)N(C)[C@@H](C(C)C)C(=O)O[C@@H]4C)c3nc-2c(C(=O)N[C@@H]2C(=O)N[C@H](C(C)C)C(=O)N3CCC[C@H]3C(=O)N(C)CC(=O)N(C)[C@@H](C(C)C)C(=O)O[C@@H]2C)c(N)c1=O [Actinomycin D, reference compound] (I: T[dV]P[Sar][NMeV] / II: T[dV]P[Sar][NMeV]; ester I:1-I:C, II:1-II:C; linker I:N-II:N via Actinocin(9to1))",IC50 at 72 h,[1],5.1 ± 0.1 µM
same,IC50 at 72 h,[2],8.8 ± 2.5 µM
same,IC50 at 72 h,[3],1.9 ± 0.865 µM
"CCCCCCCCCCCCCCCCOC[C@@H](O)CO [Compound 6, (S)-chimyl alcohol]",IC50 at 72 h,[1]; [14],23.4 ± 5.8 µM
same,IC50 at 72 h,[2]; Vero cells,60 ± 1.14 µM
same,IC50,[4]; read-out: IC50 HIV-1 PR,26.6 ± 2.6 µM
same,inhibition at 100 µg/mL,[4],100%
"CC1=CCCC(C)=CCC(O)(C(C)C)CCC(C)=CCC1 (centres unmarked) [Compound 1, sarcophytol M]",IC50 at 72 h,[1]; [15],8.1 µg/mL
same,IC50 at 72 h,[1]; [14],27.5 ± 0.2 µM
same,IC50 at 72 h,[2]; Vero cells,22 ± 0.2 µM
same,IC50 at 72 h,[3]; U937 cells,31.7 ± 3.2 µM
same,IC50,[4]; read-out: IC50 HIV-1 PR,15.7 ± 0.1 µM
same,inhibition at 100 µg/mL,[4],100%
